Experiments:
HT-1080 cells = experiment: DNA synthesis (tritiated thymidine incorporation) in HT-1080 cells; type: cell-based; settings: Homo sapiens, 144 h incubation, mean ± SD of two to four experiments
Method: DNA synthesis: NYH SCLC, HT-1080, Colo-320, PC-3 and H460 cells (7.5×10^3 cells/ml) were seeded in tissue culture vessels and the test compound were added 2 h after plating. Following an incubation for 144 h tritiated thymidine (5 CI/mmol, Amersham Pharmacia Biotech) was added to the culture at the concentration of 1 μCi/ml, and the cells were incubated for additional 4 h. The incorporated thymidine was measured with a β-counter. Each compound concentration was tested in triplicate.

NF-κB [1] = experiment: NF-κB-dependent luciferase reporter assay in LPS-stimulated THP-1 cells; type: cell-based, human; settings: 1 μM compound, then 1 μg/ml LPS 5 h
Source text: Luciferase plasmids: The NF-κB-luciferase reporter plasmid (pBIIX) was a gift from Marja Jäättelä and Ida S. Mathiasen, the Danish Cancer Society. It was constructed by inserting a synthetic fragment with two copies of the sequence (5′-ACAGAGGGGACTTTCCGAGAG-3′ separated by four nucleotides (5′-ATCT-3′) in front of a mouse fos promoter in a plasmid pfLUC (a pBluescript-based plasmid with a firefly luciferase encoding sequence) (K. Saksela and D. Baltimore, Mol. Cell Biol. 13, 1993, pp. 3698-3705) The NF-κB binding site from the mouse Igκ light chain is underlined (M. Grilli et al., Int. Rev, Cytol. 143, 1993, pp. 1-62). A Renilla luciferase plasmid with a thymidine kinase promoter (pRL-TK vector) was used as a control for transfection efficiency and was obtained from Promega Inc., Madison, Wis. Plasmid DNA was prepared and purified using the QIAGEN EndoToxin-free Maxiprep-500 kit (QIAGEN, Hilden, Germany). […]
The cell lysate was assayed for luciferase activity using the Dual luciferase kit as described by the manufacturer (Promega). […] Firefly luciferase activity was corrected for differences in transfection efficiency by normalizing it to the measured Renilla luciferase activity.

IκBα, IκBβ = experiment: Western blotting of LPS-induced IκB degradation in THP-1 cells; type: cell-based, human; settings: 1 μM compound 24 h before 1 μg/ml LPS for 10 to 30 min, versus DMSO-treated cells
Method: Western blotting: THP-1 cells (5×10^6 cells) were starved overnight at 37° C., 5% CO2 in starvation medium (RPMI 1640 with 2% FBS) including 1 μM of compound A or 0.01% DMSO. The cells were hereafter stimulated with 1 μg/ml LPS (E. coli serotype 055: B5, Sigma-Aldrich Danmark AS, Vallensbaek Strand, Denmark) at the indicated times. Whole cell extracts were prepared in lysis buffer (50 mM HEPES, pH 7.5, 150 mM NaCl, 10 mM EDTA, 10 mM Na4P2O7, 100 mM NaF, 2 mM Na3VO4, 1% Triton-X-100, 0.5 mM Pefabloc (Boehringer Mannheim GmbH, Mannheim, Germany), […]).
A 3×SDS-sample buffer (125 mM Tris/HCl pH 6.8, 4% SDS, 20% glycerol, 0.025% bromphenol blue, 10% DTT) was added to 200 μl of clarified cell lysate, and the sample (20 μl) was boiled and electrophoresed on a 12% SDS-polyacrylamide gel. The primary antibodies (anti-IκBα, anti-IκBβ, anti-cdk-7; all from Santa Cruz Biotechnology Inc., Heidelberg, Germany) were diluted 1:1000. The secondary antibody (anti-rabbit-HRP from DAKO A/S, Glostrup, Denmark) was used in a 1:2000 dilution. […] The relative amounts of the transferred proteins were quantified by using the ImageQuant Software (Molecular Dynamics, Sunnyvale, Calif., USA) by scanning the autoradiographic films and normalized to the related cdk-7 amounts.

NF-κB [2] = experiment: NF-κB-dependent luciferase assay in HT-1080 cells, TNF-α stimulation; type: cell-based, human; settings: Homo sapiens, compound 24 h before TNF-α 50 ng/ml 6 h, mean ± SD
Method: The NF-κB-luciferase reporter plasmid (pBIIX) and pRL-TK control vector described in Example 1 were used for the luciferase assay,
The HT-1080 cells were seeded at a density of 3×10^4 cells/cm^2 in 6 well-plates. The following day, the cells were co-transfected with construct DNA and pRL-TK vector using FuGene Transfection Reagent. A mixture of 10 μl Fugene and 90 μl serum free medium (per well) was prepared and Incubated for 5 min at room temperature. Then, this mixture was transferred to a mixture of construct DNA (1.25 μg per well) and pRL-TK vector (0.25 μg per well), gently mixed, incubated for 15 min at room temperature and added to the cells. The cells were treated at 37° C. with compound A (10^−12−10^−5 M) or DMSO for 24 h before stimulation with TNF-α (50 ng/ml) for 6 h.
The cell lysate was assayed for luciferase activity using the Dual luciferase kit as described by the manufacturer (Promega). All transfections were performed in triplicate. Firefly luciferase activity was corrected for differences in transfection efficiency by normalizing it to the measured Renilla luciferase activity.
NF-κB activity was measured by the luciferase assay described in Example 1.

## N#CNC(=Nc1ccncc1)NCCCCCCOc1ccc(Cl)cc1 [compound A, N-(6-(4-chlorophenoxy)hexyl)-N′-cyano-N″-(4-pyridyl)guanidine]
HT-1080 cells
  IC50: 5.6 ± 0.3 nM
NF-κB [1]; preincubation 2 h
  NF-κB-dependent luciferase activity, change: small decrease
NF-κB [1]; preincubation 24 h, relative to DMSO-treated cells
  NF-κB-dependent induction of luciferase expression blocked: ~80%
IκBα, IκBβ
  LPS-induced IκB degradation: much slower rate
NF-κB [2]
  IC50: 2480 ± 775 nM
